Data published in patent publication US20090005398A1, “Methods For The Treatment of Central Nervous System Tumors” (priority 2007, published 2009).

What was measured:
Hela = assay: Cell-Titer-Glo cell proliferation; type: cell-based; details: Homo sapiens, cervix, 72 h
Procedure: (§1) Exponentially growing cell lines of different tumor origins, cultured in appropriate media containing 10% fetal bovine serum at 37° C. in a 5% CO2 incubator were plated at low density (less than 2000 cells/well) in 96-well plates. Twenty four hours post-plating, cells were treated with different concentrations of compound ranging from 10 uM to 0.04 nM. Several wells were left untreated as a control. Seventy two hours post-treatment, cell numbers were determined using 50-100 ul per well of CellTiter-Glo (Promega #G7573). Plates were incubated at room temperature for 15 minutes and the chemiluminescent signal was read on the Victor V or Envison 2100 reader.
(§2) Concentration of compound that inhibited 50% of cell growth (IC50) was determined by 4 parameter fit of data using XLfit, (value of no cell control was subtracted from all samples for background). The Cell-Titer Glo data are shown in Table 3 below and represent a compilation of several different experiments, each performed using the general parameters outlined above, although minor variations may have been employed in some instances.

LNCaP = assay: Cell-Titer-Glo cell proliferation; type: cell-based; details: Homo sapiens, prostate, 72 h
Procedure: as §1, §2

P388 = assay: Cell-Titer-Glo cell proliferation; type: cell-based; details: Mus musculus, blood, 72 h
Procedure: as §1, §2

HT29 = assay: Cell-Titer-Glo cell proliferation; type: cell-based; details: Homo sapiens, HT-29, colon, 72 h
Procedure: as §1, §2

HCT116 = assay: Cell-Titer-Glo cell proliferation; type: cell-based; details: Homo sapiens, HCT-116, colon, 72 h
Procedure: as §1, §2

SKOV-3 = assay: Cell-Titer-Glo cell proliferation; type: cell-based; details: Homo sapiens, SK-OV-3, ovary, 72 h
Procedure: as §1, §2

HN5 = assay: Cell-Titer-Glo cell proliferation; type: cell-based; details: Homo sapiens, head and neck, 72 h
Procedure: as §1, §2

A549-L = assay: Cell-Titer-Glo cell proliferation; type: cell-based; details: lung, 72 h
Procedure: as §1, §2

MCF7 = assay: Cell-Titer-Glo cell proliferation; type: cell-based; details: Homo sapiens, breast, 72 h
Procedure: as §1, §2

H1299 = assay: Cell-Titer-Glo cell proliferation; type: cell-based; details: Homo sapiens, NCI-H1299, lung, 72 h
Procedure: as §1, §2

PANC-1 = assay: Cell-Titer-Glo cell proliferation; type: cell-based; details: Homo sapiens, pancreas, 72 h
Procedure: as §1, §2

COLO205 = assay: Cell-Titer-Glo cell proliferation; type: cell-based; details: Homo sapiens, COLO 205, colon, 72 h
Procedure: as §1, §2

MX-1 = assay: Cell-Titer-Glo cell proliferation; type: cell-based; details: Homo sapiens, MX1, breast, 72 h
Procedure: as §1, §2

MV522 = assay: Cell-Titer-Glo cell proliferation; type: cell-based; details: lung, 72 h
Procedure: as §1, §2

cancer cell lines = assay: Methylene Blue, Cell-Titre Glo Growth or Multiple Cell Line cellular proliferation assays; type: cell-based
Procedure: Generally, exponentially growing cell lines of different tumor origins, cultured in appropriate media containing 10% fetal bovine serum at 37° C. in a 5% CO2 incubator were plated at low density (less than 2000 cells/well) in 96-well plates. Twenty four hours post-plating, cells were treated with different concentrations of compound ranging from 10 uM to 0.04 nM. Several wells were left untreated as a control. Seventy two hours post-treatment, cell numbers were determined using 100 μl per well of methylene blue (Sigma M9140) (0.5% in 50:50 Ethanol:water). Stain was incubated at room temperature for 30 minutes before plates were rinsed and dye solubilized in 1% N-lauroyl sarcosine, sodium salt, (Sigma L5125, in PBS) (further details of a methylene blue assay are described below). Plates were read on a microplate reader, measuring the OD at 620 nm.
as §1, with “Twenty four hours post-plating, cells were treated with different concentrations of compound ranging from 10 uM to 0.04 nM. Several wells were left untreated as a control.” left out, “reader. […]” for “reader.”

glioma cell lines = assay: Washout assay, all cell lines together; type: cell-based; details: all seven glioma cell lines of Table 5
Procedure: Seven glioma cell lines that can double at least once over three days were thawed and grown to 70-80% confluency before being used in the assay. On day 1, for each cell line, 2-3×10^5 cells were seeded into each well in 6-well cell culture plates and incubated at 37° C. overnight. […] The plates were incubated at 37° C. for 3 days.
On day 5, the compound was efficiently washed four times with culture medium supplemented with 20% fetal bovine serum (FBS) and then washed once in buffered saline solution (PBS). The cells were trypsinized. For each of the concentrations, compound-treated cell lines were plated into five 96-well plates at 5000 cells per well. For the next 4 consecutive days, one plate of the cells was taken out of the incubator and cell proliferation was measured by MTT ELISA assay.
The washout assay is designed to follow the cells' recovery from exposure to the compound. Each glioma cell line was assayed at least twice. The criteria for evaluating sensitivity or resistance was Last Growth Back Concentration (LGC), if LGC<=30 nM, the cell line is considered sensitive; if LGC>=1 uM, it is considered resistant; if LGC is in between these two concentrations, the cell line is considered intermediate. Based on criteria set, all the glioma cell lines appeared to be sensitive to the compound of Example 1.

[1] = Protein binding to human plasma proteins by equilibrium dialysis; type: in vitro ADME; details: pH 7.4, equilibrium dialysis 6 h, 37° C.
Procedure: 96 Well Plate (High Throughput Dialysis): Stock solution of compound was spiked into human plasma at a target concentration of 2000 ng/mL. The mixture was inverted gently several times to insure homogeneity and triplicate 50 μL aliquots were collected to verify initial concentrations. Following assembly of dialysis plate (HTDialysis membrane strips, molecular weight cut off limit of 12,000-14,000 daltons), spiked plasma (150 μL) was placed in the donor compartment of the well and Phosphate Buffered Saline pH 7.4 (150 μL) in the receiver compartment. Eight wells were set up per compound and plasma type. Plate was placed in a 37° C. incubator on a plate shaker. Following the 6 h incubation period, the plate was removed. Single 50 μL aliquots from each donor and receiver compartment (per well) were analyzed.
Sample analysis was by LC/MS/MS (results reported as Drug Peak Area/Internal Standard Peak Area ratios). Protein binding assay can also be performed using dialysis cells instead of HT Dialysis 96 well plates. In Table 1, % Protein Binding, +=>98%; ++=95-98%: +++=<95%.

IC50 (Hela): < 500 nM
IC50 (LNCaP): < 500 nM
IC50 (P388): < 500 nM
IC50 (HT29): < 500 nM
IC50 (HCT116): < 500 nM
IC50 (SKOV-3): < 500 nM
IC50 (A549-L): < 500 nM
IC50 (MCF7): < 500 nM
IC50 (H1299): < 500 nM
IC50 (PANC-1): < 500 nM
IC50 (COLO205): < 500 nM
IC50 (cancer cell lines): < 1000 nM
fraction unbound at 6 h, 2000 ng/mL [1]: > 0.05
Structure (SMILES): C[C@@H](Oc1cc(-n2cnc3ccc(CN4CCN(C)CC4)cc32)sc1C(N)=O)c1ccccc1C(F)(F)F [Example 1, 5-{6-[(4-Methylpiperazin-1-yl)methyl]-1H-benzimidazol-1-yl}-3-{(1R)-1-[2-(trifluoromethyl)phenyl]ethoxy}thiophene-2-carboxamide]
IC50 (HN5): < 500 nM
IC50 (MX-1): < 500 nM
IC50 (MV522): < 500 nM
sensitivity of glioma cell lines by LGC criteria (glioma cell lines): sensitive (LGC<=30 nM)
